Measurements published in ChEMBL document CHEMBL3739395, “Discovery and optimisation of 1-acyl-2-benzylpyrrolidines as potent dual orexin receptor antagonists” (Medchemcomm, 2015).
Values after ≈ are worked out from the molar mass of the structure shown. Active and inactive are the calls of the source. The rule behind the calls is not given here.

What was measured:
[1] = Drug uptake in Wistar rat brain at 100 mg/kg, po measured 3 hrs post dose; type: ADME, organism-based; conditions: read-out: Drug uptake
[2] = Drug uptake in Wistar rat cerebrospinal fluid at 100 mg/kg, po measured 3 hrs post dose; type: ADME, organism-based; conditions: read-out: Drug uptake
[3] = Ratio of drug level in brain to plasma in Wistar rat at 100 mg/kg, po measured 3 hrs post dose; type: ADME, organism-based; conditions: brain and plasma, read-out: BPR
Orexin receptor type 2 = target: T1, Orexin receptor type 2 (Homo sapiens, UniProt O43614); assay: Inhibition of human orexin-2 receptor expressed in CHO cells assessed as calcium release preincubated for 120 mins followed by addition of orexin-A by fluo-4 AM based-FLIPR analysis; type: functional, cell-based
T1 sequence (O43614 whole entry): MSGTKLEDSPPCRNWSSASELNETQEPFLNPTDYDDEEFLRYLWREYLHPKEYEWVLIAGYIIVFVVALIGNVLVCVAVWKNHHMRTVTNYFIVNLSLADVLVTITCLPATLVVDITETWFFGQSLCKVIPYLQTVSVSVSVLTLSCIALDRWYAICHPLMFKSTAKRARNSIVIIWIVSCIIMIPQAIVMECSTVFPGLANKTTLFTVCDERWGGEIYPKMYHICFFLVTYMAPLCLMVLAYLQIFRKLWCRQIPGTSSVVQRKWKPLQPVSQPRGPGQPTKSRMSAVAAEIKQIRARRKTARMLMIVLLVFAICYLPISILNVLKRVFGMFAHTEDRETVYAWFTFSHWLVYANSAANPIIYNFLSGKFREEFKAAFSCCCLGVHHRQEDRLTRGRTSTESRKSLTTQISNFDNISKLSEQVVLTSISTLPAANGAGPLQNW

[4] = Intrinsic clearance in human liver microsomes at 1 uM; type: ADME; conditions: read-out: CLH
[5] = Intrinsic clearance in rat liver microsomes at 1 uM; type: ADME; conditions: read-out: CLH
[6] = target: T2, Orexin/Hypocretin receptor type 1 (Homo sapiens, UniProt O43613); assay: Inhibition of human orexin-1 receptor expressed in CHO cells assessed as calcium release preincubated for 120 mins followed by addition of orexin-A by fluo-4 AM based-FLIPR analysis; type: functional, cell-based
T2 sequence (O43613 whole entry): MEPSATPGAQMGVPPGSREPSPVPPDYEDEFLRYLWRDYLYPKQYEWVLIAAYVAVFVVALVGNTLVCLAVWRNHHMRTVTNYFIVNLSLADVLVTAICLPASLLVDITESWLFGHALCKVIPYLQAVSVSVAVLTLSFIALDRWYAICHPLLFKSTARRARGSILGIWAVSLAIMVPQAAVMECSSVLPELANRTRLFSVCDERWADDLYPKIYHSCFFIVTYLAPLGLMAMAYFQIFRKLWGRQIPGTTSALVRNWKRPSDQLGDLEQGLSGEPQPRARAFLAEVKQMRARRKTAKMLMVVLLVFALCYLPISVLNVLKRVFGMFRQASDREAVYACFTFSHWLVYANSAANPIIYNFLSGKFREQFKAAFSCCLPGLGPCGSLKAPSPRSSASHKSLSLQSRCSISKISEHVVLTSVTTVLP

[7] = Plasma concentration in Wistar rat at 100 mg/kg, po measured 3 hrs post dose; type: ADME, organism-based
[8] = Solubility of compound in unbuffered water at pH 4.1; type: physicochemical
Cytochrome P450 3A4 = Cytochrome P450 3A4 (Homo sapiens, UniProt P08684); assay: Inhibition of CYP3A4 (unknown origin) assessed as testosterone-6beta hydroxylation; type: ADME
Rattus norvegicus [9] = assay: Reduction in home cage activity in Wistar rat sleep model at 100 mg/kg, po administered as single dose during first 6 hrs of night active period post dose relative to vehicle control; type: functional; set-up: scale not given: the % may be the effect or the level left
Rattus norvegicus [10] = assay: Sleep promoting effect in Wistar rat sleep model at 100 mg/kg, po administered as single dose during first 6 hrs of night active period post dose relative to vehicle control; type: functional, organism-based
Rattus norvegicus [11] = assay: Reduction in time spent in active wake state in Wistar rat sleep model at 100 mg/kg, po administered as single dose during first 6 hrs of night active period post dose relative to vehicle control; type: functional; set-up: scale not given: the % may be the effect or the level left
Rattus norvegicus [12] = assay: Increase in time spent in quiet wake state in Wistar rat sleep model at 100 mg/kg, po administered as single dose during first 6 hrs of night active period post dose relative to vehicle control; type: functional
Rattus norvegicus [13] = assay: Increase in time spent in non-rapid eye movement sleep in Wistar rat sleep model at 100 mg/kg, po administered as single dose during first 6 hrs of night active period post dose relative to vehicle control; type: functional
Rattus norvegicus [14] = assay: Increase in time spent in rapid eye movement sleep in Wistar rat sleep model at 100 mg/kg, po administered as single dose during first 6 hrs of night active period post dose relative to vehicle control; type: functional
[15] = Clearance in rat; type: ADME, organism-based; conditions: in vivo
[16] = Oral bioavailability in rat; type: ADME, organism-based; conditions: in vivo
[17] = Lipophilicity, log D of the compound; type: physicochemical; conditions: octanol/water

Cytochrome P450 3A4, sequence (P08684 whole entry): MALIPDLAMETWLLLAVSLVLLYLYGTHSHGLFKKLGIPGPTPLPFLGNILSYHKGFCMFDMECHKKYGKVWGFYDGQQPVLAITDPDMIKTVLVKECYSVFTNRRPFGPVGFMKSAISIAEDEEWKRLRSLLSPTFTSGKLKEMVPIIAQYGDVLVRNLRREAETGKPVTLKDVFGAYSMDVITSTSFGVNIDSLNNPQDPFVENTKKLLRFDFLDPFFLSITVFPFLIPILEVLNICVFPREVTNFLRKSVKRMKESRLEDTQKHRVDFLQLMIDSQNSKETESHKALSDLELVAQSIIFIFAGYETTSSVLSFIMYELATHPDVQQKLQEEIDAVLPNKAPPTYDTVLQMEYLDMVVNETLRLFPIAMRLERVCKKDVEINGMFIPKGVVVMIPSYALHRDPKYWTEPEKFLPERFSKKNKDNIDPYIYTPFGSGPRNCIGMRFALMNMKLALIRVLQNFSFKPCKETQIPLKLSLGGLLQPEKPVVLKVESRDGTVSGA

Compound: COc1ccc(C[C@@H]2CCCN2C(=O)c2ccccc2-n2nccn2)cc1OC
- concentration at 3 h [1]: 45 ng/mL
- concentration at 3 h [2]: 12 ng/mL
- Kp at 3 h [3]: 0.39
- IC50 (Orexin receptor type 2): 3.5 nM
- microsomal CLint at 1 µM [4]: 104 µL/min/mg
- microsomal CLint at 1 µM [5]: > 1250 µL/min/mg
- IC50 [6]: 16 nM
- concentration at 3 h [7]: 114 ng/mL

Compound: COc1cccc(-c2sc(C)nc2C(=O)N2CCC[C@H]2Cc2ccc(OC)c(OC)c2)c1
- IC50 (Orexin receptor type 2): 7.8 nM
- microsomal CLint at 1 µM [4]: 300 µL/min/mg
- IC50 [6]: 11 nM

Compound: COc1ccc(CCC2CCCCN2C(=O)c2cc(C)ccc2-n2nccn2)cc1OC (racemic)
- IC50 (Orexin receptor type 2): 16 nM
- microsomal CLint at 1 µM [4]: 817 µL/min/mg
- IC50 [6]: 28 nM

Compound: Cc1cccc(-c2sc(C)nc2C(=O)N2CCC[C@H]2Cc2ccc3c(c2)OCCO3)c1
- IC50 (Orexin receptor type 2): 39 nM
- microsomal CLint at 1 µM [4]: 1040 µL/min/mg
- IC50 [6]: 35 nM

Compound: COc1ccc(C[C@@H]2CCCN2C(=O)c2nc(C)sc2-c2cccc(C)c2)cc1OC
- concentration at 3 h [1]: 125 ng/mL
- concentration at 3 h [2]: 6 ng/mL
- Kp at 3 h [3]: 0.97
- IC50 (Orexin receptor type 2): 3.1 nM
- microsomal CLint at 1 µM [4]: 338 µL/min/mg
- microsomal CLint at 1 µM [5]: > 1250 µL/min/mg
- IC50 [6]: 3.5 nM
- concentration at 3 h [7]: 129 ng/mL

Compound: COc1ccc(C[C@@H]2CCCN2C(=O)c2nc(C)sc2-c2ccc(F)cc2)cc1OC
- IC50 (Orexin receptor type 2): 62 nM
- microsomal CLint at 1 µM [4]: 216 µL/min/mg
- IC50 [6]: 111 nM

Compound: COc1ccc(-c2sc(C)nc2C(=O)N2CCC[C@H]2Cc2ccc(OC)c(OC)c2)cc1
- IC50 (Orexin receptor type 2): 10 nM
- microsomal CLint at 1 µM [4]: 210 µL/min/mg
- IC50 [6]: 17 nM

Compound: COc1ccc(CC2CCCCN2C(=O)c2cc(C)ccc2-n2nccn2)cc1OC (racemic)
- IC50 (Orexin receptor type 2): 3.3 nM
- microsomal CLint at 1 µM [4]: 616 µL/min/mg
- IC50 [6]: 2.7 nM

Compound: CCn1cc(C(=O)N2CCc3ccsc3C2Cc2ccc(OC)c(OC)c2)c2ccccc21 (racemic)
- IC50 (Orexin receptor type 2): 1.4 nM
- microsomal CLint at 1 µM [4]: > 1250 µL/min/mg
- microsomal CLint at 1 µM [5]: > 1250 µL/min/mg
- solubility [8]: 7 µg/mL (≈ 15.2 µM)
- IC50 [6]: 5.4 nM
- IC50 (Cytochrome P450 3A4): 3000 nM

Compound: COc1ccc(Cl)c(C[C@@H]2CCCN2C(=O)c2nc(C)sc2-c2cccc(C)c2)c1
- IC50 (Orexin receptor type 2): 18 nM
- microsomal CLint at 1 µM [4]: 996 µL/min/mg
- microsomal CLint at 1 µM [5]: > 1250 µL/min/mg
- IC50 [6]: 33 nM

Compound: COc1cc(C[C@@H]2CCCN2C(=O)c2nc(C)sc2-c2cccc(C)c2)cc(OC)c1
- IC50 (Orexin receptor type 2): 4.3 nM
- microsomal CLint at 1 µM [4]: 798 µL/min/mg
- IC50 [6]: 3.4 nM

Compound: COc1ccc(C[C@@H]2CCCN2C(=O)c2nc(C)ccc2-c2ncccn2)cc1OC
- IC50 (Orexin receptor type 2): 71 nM
- microsomal CLint at 1 µM [4]: 17 µL/min/mg
- IC50 [6]: 60 nM

Compound: CNC(=O)[C@@H](c1ccccc1)N1CCc2cc(OC)c(OC)cc2[C@@H]1CCc1ccc(C(F)(F)F)cc1 [ALMOREXANT]
- Activity (Rattus norvegicus [9]): -42%
- Activity (Rattus norvegicus [10]): Active
- Activity (Rattus norvegicus [11]): -20%
- Activity (Rattus norvegicus [12]): -8%
- Activity (Rattus norvegicus [13]): 22%
- Activity (Rattus norvegicus [14]): 50%

Compound: COc1ccc(C[C@@H]2CCCN2C(=O)c2nc(C)sc2-c2ccc3c(c2)CCO3)cc1OC
- IC50 (Orexin receptor type 2): 8 nM
- microsomal CLint at 1 µM [4]: 235 µL/min/mg
- IC50 [6]: 8.3 nM

Compound: CCn1cc(C(=O)N2CCCCC2Cc2ccc(OC)c(OC)c2)c2ccccc21 (racemic)
- IC50 (Orexin receptor type 2): 102 nM
- IC50 [6]: 28 nM

Compound: Cc1cccc(-c2sc(C)nc2C(=O)N2CCC[C@H]2Cc2ccc(C)c(Cl)c2)c1
- IC50 (Orexin receptor type 2): 10 nM
- microsomal CLint at 1 µM [4]: > 1250 µL/min/mg
- microsomal CLint at 1 µM [5]: > 1250 µL/min/mg
- IC50 [6]: 13 nM

Compound: COc1ccc(C[C@@H]2CCCN2C(=O)c2ccccc2-c2nc(C)no2)cc1OC
- IC50 (Orexin receptor type 2): 12 nM
- microsomal CLint at 1 µM [4]: 129 µL/min/mg
- IC50 [6]: 33 nM

Compound: COc1ccc(C[C@@H]2CCCN2C(=O)c2nc(C)sc2-c2cccc(C)c2)cc1Cl
- IC50 (Orexin receptor type 2): 1.8 nM
- microsomal CLint at 1 µM [4]: > 1250 µL/min/mg
- microsomal CLint at 1 µM [5]: > 1250 µL/min/mg
- IC50 [6]: 3.8 nM

Compound: COc1ccc(C[C@@H]2CCCN2C(=O)c2nccnc2-c2cccc(C)c2)cc1OC
- concentration at 3 h [1]: 89 ng/mL
- concentration at 3 h [2]: 22 ng/mL
- Kp at 3 h [3]: 0.4
- IC50 (Orexin receptor type 2): 4 nM
- microsomal CLint at 1 µM [4]: 158 µL/min/mg
- IC50 [6]: 23 nM
- concentration at 3 h [7]: 225 ng/mL

Compound: COc1ccc(C[C@@H]2CCCN2C(=O)c2nc(C)sc2-c2cccc(Cl)c2)cc1OC
- IC50 (Orexin receptor type 2): 6.3 nM
- microsomal CLint at 1 µM [4]: 612 µL/min/mg
- IC50 [6]: 9.1 nM

Compound: COc1ccc(C[C@@H]2CCCN2C(=O)c2ccccc2-c2ncccn2)cc1OC
- concentration at 3 h [1]: 134 ng/mL
- concentration at 3 h [2]: 113 ng/mL
- Kp at 3 h [3]: 0.18
- IC50 (Orexin receptor type 2): 4.7 nM
- microsomal CLint at 1 µM [4]: 102 µL/min/mg
- IC50 [6]: 16 nM
- concentration at 3 h [7]: 737 ng/mL

Compound: COc1ccc(C[C@@H]2CCCN2C(=O)c2cc(C)ccc2-n2cccn2)cc1OC
- IC50 (Orexin receptor type 2): 65 nM
- microsomal CLint at 1 µM [4]: > 1250 µL/min/mg
- IC50 [6]: 45 nM

Compound: COc1ccc(C[C@@H]2CCCN2C(=O)c2cc(C)ccc2-n2nccn2)cc1OC
- IC50 (Orexin receptor type 2): 8.4 nM
- microsomal CLint at 1 µM [4]: 356 µL/min/mg
- microsomal CLint at 1 µM [5]: > 1250 µL/min/mg
- solubility [8]: 160 µg/mL (≈ 394 µM)
- IC50 [6]: 8.5 nM
- clearance [15]: 55 mL/min/kg
- bioavailability [16]: < 10%
- logD [17]: 3

Compound: Cc1cccc(-c2sc(C)nc2C(=O)N2CCC[C@H]2Cc2ccc(Cl)c(Cl)c2)c1
- IC50 (Orexin receptor type 2): 66 nM
- microsomal CLint at 1 µM [4]: > 1250 µL/min/mg
- IC50 [6]: 22 nM

Compound: COc1ccc(CC2c3sccc3CCN2C(=O)c2cc(C)ccc2-n2nccn2)cc1OC (racemic)
- IC50 (Orexin receptor type 2): 428 nM
- IC50 [6]: 131 nM

Compound: COc1cccc(CCC2CCCCN2C(=O)c2cc(C)ccc2-n2nccn2)c1 (racemic)
- IC50 (Orexin receptor type 2): 243 nM
- microsomal CLint at 1 µM [4]: 1170 µL/min/mg
- IC50 [6]: 108 nM

Compound: Cc1ccc(-n2nccn2)c(C(=O)N2CCN(c3nc4cc(Cl)ccc4o3)CC[C@H]2C)c1 [SUVOREXANT]
- Activity (Rattus norvegicus [9]): -31%
- Activity (Rattus norvegicus [10]): Active
- Activity (Rattus norvegicus [11]): -16%
- Activity (Rattus norvegicus [12]): 9%
- Activity (Rattus norvegicus [13]): 19%
- Activity (Rattus norvegicus [14]): 20%

Compound: Cc1cccc(-c2sc(C)nc2C(=O)N2CCC[C@H]2Cc2ccc3c(c2)OCO3)c1
- IC50 (Orexin receptor type 2): 40 nM
- microsomal CLint at 1 µM [4]: 124 µL/min/mg
- IC50 [6]: 64 nM

Compound: COc1cccc(C[C@@H]2CCCN2C(=O)c2nc(C)sc2-c2cccc(C)c2)c1Cl
- IC50 (Orexin receptor type 2): 16 nM
- microsomal CLint at 1 µM [4]: > 1250 µL/min/mg
- microsomal CLint at 1 µM [5]: > 1250 µL/min/mg
- IC50 [6]: 26 nM
